Measurements reported in PMC12040169 (PLOS Biology, 2025).

Experiment: in vitro
Conditions: human, hela cells, % viability

Row | Compound | viability at 28.5 h, 10 µM | viability at 28.5 h, 10 µM (bulk resorufin, single well)
1 | CCCCOc1ccc(-c2nnn(C(C)C(=O)O)n2)cc1 (stereo not shown) [CBK070540] | 103% | 
2 | CNC(=O)c1nc(NC)oc1C [CBK059214] | 94.4% | 
3 | N#C/C(=C\c1cn(-c2ccccc2)nc1-c1ccc(S(=O)(=O)N2CCCCC2)cc1)c1nc2ccccc2c(=O)[nH]1 [CBK266268] | 101% | 
4 | O=C(CN1CCCCC1)N1CCCC1c1nc2ccccc2[nH]1 (stereo not shown) [CBK283935] | 104% | 
5 | O=C(/C=C\c1ccccc1)CC1(O)C(=O)N(Cc2cccc3ccccc23)c2ccccc21 (stereo not shown) [CBK264761] | 96.7% | 
6 | O=C(CCC1CCCO1)NC(Cc1ccsc1)c1cccnc1 (stereo not shown) [CBK285159] | 87.6% | 
7 | c1ccc(-c2nc3ccc(Cc4ccc5nc(-c6ccccn6)c(-c6ccccn6)nc5c4)cc3nc2-c2ccccn2)nc1 [CBK261975] | 101% | 
8 | COc1cc(OC)c(NC(=O)C(C)Oc2ccc(Br)cc2)cc1Cl (stereo not shown) [CBK266791] | 97% | 
9 | Cc1ccc(S(=O)(=O)N/N=C/C=C/c2ccc(N(C)C)cc2)cc1 [CBK265078] | 99.7% | 
10 | NNc1nccc(Nc2ccccc2C(=O)O)n1 [CBK263145] | 95.9% | 
11 | CN(C)CCN(C)c1ccc(/C=C/c2ccccc2)cn1 [CBK037026] | 98.4% | 
12 | Nc1ccc(S(=O)(=O)NC2(C(F)(F)F)NC(=O)N(c3ccccc3Cl)C2=O)cc1 (stereo not shown) [CBK268003] | 107% | 
13 | O=C(CCCn1c(=O)[nH]c2ccsc2c1=O)Nc1ccc(F)cc1 [CBK287769] | 93.3% | 
14 | COc1cc(F)cc(OC2CCNCC2)c1NC(=O)c1c(-c2ccccc2)noc1C [CBK050350T] | 91.8% | 
15 | Cc1ccc(SCCNC(=O)CSc2n[nH]c(=O)n2C2CC2)cc1 [CBK295605] | 120% | 
16 | O=C(c1cncs1)N1CCn2nc(C(O)Cc3ccccc3)cc2C1 (stereo not shown) [CBK306754] | 90.6% | 
17 | CC(=O)N(C)c1nc(-c2ccco2)ccc1C(=O)Nc1cc(C)nn1C [CBK106356] | 89.3% | 
18 | Cc1ccc(-c2nnc(N3CCN(C(=O)CSc4nc[nH]n4)CC3)c3ccccc23)cc1 [CBK266652] | 107% | 
19 | c1csc(CCN2CCC3(C2)NCCc2c3[nH]c3ccccc23)c1 (stereo not shown) [CBK040196] | 111% | 
20 | COc1ccc(CN2CCN(Cc3ccc4c(c3)OCO4)CC2)c(OC)c1OC [CBK033874] | 91.4% | 
21 | O=c1[nH]c2cccc(O)c2o1 [CBK048613] | 90.9% | 
22 | CCOC(=O)c1nc(C2CCN(c3cccc(F)c3C#N)CC2)n[nH]1 [CBK304711] | 119% | 

Row | Compound | viability at 28.5 h, 10 µM | viability at 28.5 h, 10 µM (bulk resorufin, single well)
23 | O=C(c1ccccc1)N1CCC(c2cccc(Cc3ccccc3Cl)n2)CC1 [CBK286085] | 88.2% | 
24 | COc1ccc(CCC(=O)NC[C@H]2CC[C@H](c3cc(C(N)=O)c4ccccc4n3)CC2)cc1 [CBK285920] | 91.7% | 
25 | CCn1cc(C(=O)N2CCCC2c2nc3ccccc3[nH]2)cn1 (stereo not shown) [CBK283776] | 109% | 
26 | Cc1cc(CNC(=O)c2cc3ccccc3oc2=O)c2ccccc2n1 [CBK269834] | 94.2% | 
27 | COc1cc2c(cc1OC)C(CCN1CCN(c3ccc(Cl)cc3)CC1)OCC(C)(C)C2 (stereo not shown) [CBK024051C] | 111% | 
28 | COc1cc(/C=N\NC(=O)CSc2nc3ccccc3o2)ccc1O [CBK263630] | 86.5% | 
29 | COc1ccc(C(=O)NCc2ccccc2)c(OC)n1 [CBK200190] | 142% | 
30 | Cc1ccc(-c2nn(CCC#N)cc2C(=O)N2CCOCC2)cc1 [CBK305939] | 96.2% | 
31 | O=[N+]([O-])c1ccc(Sc2nnc(-c3cccs3)n2CC2CCCO2)cn1 (stereo not shown) [CBK297483] | 94.6% | 
32 | COc1ccccc1C(NC(=O)C1CCN(CCCN2C(=O)CC3CCCCC3C2=O)CC1)c1ccccn1 (stereo not shown) [CBK147940] | 95% | 
33 | c1nc(OCCN2CCOCC2)cc(N2CCCN(CCN3CCOCC3)CC2)n1 [CBK083647] | 103% | 
34 | Oc1c(C(Nc2cccnc2)c2cccs2)ccc2cccnc12 (stereo not shown) [CBK268637] | 72.4% | 
35 | Cc1cccc2c3c([nH]c12)C1(CCCN(Cc2ccc(F)cc2Cl)C1)NCC3 (stereo not shown) [CBK039339] | 90% | 
36 | CC(=O)N1C[C@@H](c2ccsc2)[C@@H]2CN(Cc3ccccc3)CC[C@@H]21 [CBK284585] | 109% | 
37 | CCCC(=O)Nc1ccc(C(=O)O)cc1NC(=O)CCC [CBK286939] | 92.3% | 
38 | Cc1cc(Cl)c(S(=O)(=O)Nc2cccnc2)cc1OCC(=O)NC1CCCCC1 [CBK266773] | 92.7% | 
39 | O=[N+]([O-])c1ccccc1S(=O)(=O)N1CCN(S(=O)(=O)c2ccc(Cl)cc2)CC1 [CBK264311] | 98.6% | 
40 | O=C(COc1ccccc1Cl)Nc1cccc(NC(=O)c2cccc(Cl)c2)c1 [CBK263651] | 106% | 
41 | CN(C)c1cccc2c(S(=O)(=O)n3ccn(-c4cccc(C(F)(F)F)c4)c3=O)cccc12 [CBK106578] | 109% | 
42 | Cc1ccccc1S(=O)(=O)Nc1nccnc1-c1ccc2c(c1)OCO2 [CBK050941] | 122% | 
43 | O=C(O)COc1noc2nc3c(cc12)CCCCC3 [CBK269429] | 97.7% | 
44 | COc1cccc2c1OC1(CCN(C(=O)c3cccnc3)CC1)OC2 [CBK061070] |  | 95.7%

Row | Compound | viability at 28.5 h, 10 µM | viability at 28.5 h, 10 µM (bulk resorufin, single well)
45 | Cc1cc(C(=O)Nc2ccc(S(=O)(=O)N3CC(C)OC(C)C3)cc2)c2ccccc2n1 (stereo not shown) [CBK295170] | 87.4% | 
46 | O=C(O)c1ccc(N2C(=O)CC(c3ccccc3)CC2=O)cc1 [CBK291169] | 87.3% | 
47 | O=C(Nc1ccc2[nH]ccc2c1)c1ccc(F)c(F)c1 [CBK159683] | 88.3% | 
48 | CC(C)c1ccc(C(C)NC(=O)Cn2cccc(C(=O)NC3CCCCC3)c2=O)cc1 (stereo not shown) [CBK286044] | 119% | 
49 | O=C(NC1CCN(CC(F)(F)F)CC1)c1cnc(-c2ccccc2)s1 [CBK305474] | 98.4% | 
50 | O=C(O)c1ccccc1N1C(=O)C2CC=C(Cl)CC2C1=O (stereo not shown) [CBK287007] | 94.4% | 
51 | Cc1ccc(C2NS(=O)(=O)NC2=N)cc1 (stereo not shown) [CBK263848] | 95.2% | 
52 | CCc1ccccc1NC(=O)Cn1ncnc1Sc1nc2c(c(=O)n(C)c(=O)n2C)n1C [CBK265963] | 87.6% | 
53 | CCOc1ccccc1C(=O)Nc1cnc(-c2cccc(C)c2)c(-c2ccc(N)cc2)n1 [CBK036783] | 107% | 
54 | O=C1Nc2ccccc2C12NN=C(c1ccccc1)S2 (stereo not shown) [CBK017221] | 100% | 
55 | O=C(COc1ccc(F)cc1)Nc1cccc2[nH]ccc12 [CBK159653] | 86% | 
56 | CC(=O)N1c2ccccc2C(C)=CC1C1CCCC(=O)C1 (stereo not shown) [CBK007219] | 101% | 
57 | Cc1ccc(OCC(=O)N2N=C(CC(C)C)CC2(O)C(F)(F)F)cc1C (stereo not shown) [CBK293935] | 91.5% | 
58 | O=C(CSc1ccc2ccccc2c1)Nc1ccc(Cl)c(C(=O)O)c1 [CBK268239] | 103% | 
59 | COc1ccc(C(NC(=O)[C@H]2CCCN2C(=O)c2c(-c3ccccc3)noc2C)c2ccccc2C)cn1 (stereo partly shown) [CBK075055] | 98.4% | 
60 | COc1ccc(OC)c(N2Cc3ccc(OC)c(OC)c3C2=O)c1 [CBK113161] | 82.9% | 
61 | c1csc(-c2nccnc2NCCCN2CCOCC2)c1 [CBK036632] | 84.6% | 
62 | Fc1ccccc1-c1nccnc1NCc1cccs1 [CBK038088] | 106% | 
63 | Nc1nonc1C(=O)NCCNS(=O)(=O)c1ccc(F)cc1 [CBK265980] | 88.1% | 
64 | CC(C)c1ccc(C(=O)N2CCC(n3cnc4cccnc43)CC2)cc1 [CBK282370] | 82.3% | 
65 | CN(/N=C\c1ccc([N+](=O)[O-])cc1)c1nc(-c2ccccc2)cc(-c2ccccc2)n1 [CBK261517] | 88.9% | 
66 | Cc1ncccc1COC(=O)N1Cc2ccccc2C1 [CBK200138] | 91.1% | 

Row | Compound | viability at 28.5 h, 10 µM | viability at 28.5 h, 10 µM (bulk resorufin, single well)
67 | CCOC(=O)c1ccc(-n2c(CCC(=O)O)ccc2-c2ccc(F)cc2)cc1O [CBK266010] | 94.1% | 
68 | COc1ccc(-n2cc(-c3ccc(F)cc3)nn2)cc1OC [CBK113110] | 89.8% | 
69 | CCN(CC)C(=O)CN1CCC(c2ccccc2F)CC1 [CBK283549] | 94% | 
70 | CC(C)NCC(O)c1c2c(cc3c1CCC3)CCC2 (stereo not shown) [CBK012972F] | 108% | 
71 | O=C(c1ccncc1)N1C2CCC1CC(O)(c1ccc(F)cc1)C2 (stereo not shown) [CBK283545] | 95.6% | 
72 | CCc1nc2n(n1)CC(NCc1nc(C)ccc1O)CC2 (stereo not shown) [CBK306107] | 106% | 
73 | O=C(O)c1ccc(CSc2nnc(-c3ccccc3)n2Cc2ccccc2)cc1 [CBK265013] | 114% | 
74 | CCCn1nnc(NC(=O)C(C)Oc2ccc(Cl)cc2Cl)n1 (stereo not shown) [CBK266772] | 98.6% | 
75 | O=C(Nc1ccccc1C(=O)O)c1cccc(-n2cnnc2)c1 [CBK269769] | 85.4% | 
76 | COC(=O)c1cccc2c(C)c(C)[nH]c12 [CBK001563] | 97.4% | 
77 | COc1c(C)cc(S(=O)(=O)NCCN2CCOCC2)c(C)c1C [CBK269893] | 94.1% | 
78 | COc1ccc(C2NC(C(=O)O)CS2)c(OC)c1 (stereo not shown) [CBK260908] | 99.2% | 
79 | O=C(CSCc1ccc(Br)cc1)N1CCN(Cc2ccc3c(c2)OCO3)CC1 [CBK268059] | 89.7% | 
80 | CCC(C)NC(=O)C1CCC(=O)N1Cc1ccc(C)cc1 (stereo not shown) [CBK294470] | 90% | 
81 | Cc1cc(CN2CCN(S(=O)(=O)c3ccc(C(F)(F)F)cc3Cl)CC2)cc(C)c1O [CBK063074] | 103% | 
82 | CN(C)C(=O)c1ccc(Cn2nc(C(=O)Nc3nccs3)c3ccccc32)cc1 [CBK047701] |  | 95.4%
83 | c1ccc(CSc2ccc(-c3ccncc3)nn2)nc1 [CBK287638] | 101% | 
84 | C=C1C2(C(=O)N3CCC(Oc4cccnc4)CC3)CCC(C2)C1(C)C (stereo not shown) [CBK282082] | 107% | 
85 | c1cncc(-c2cn3ccnc3c(NCC3CC3)n2)c1 [CBK036609] | 84% | 
86 | COc1ccc(C2(CNC(C)(C)CN)CCCC2)cc1OC [CBK008989] | 104% | 
87 | O=C(Nc1ncn(CC(=O)N2CCCCCC2)n1)c1cccs1 [CBK304953] | 78.1% | 
88 | CNC(=O)C1(Cc2ccccc2-c2ccccc2C)CCN(C(=O)Cc2ccccc2)CC1 [CBK285901] | 106% | 
